The source of these data is patent publication US20150259331A1, “PROTOZOAN PARASITE GROWTH INHIBITORS” (Northeastern University, priority 2014, published 2015).

For data set [1], the system named is L. major amastigote. Put plainly: L. major amastigote assay. It counts as cell-based.
Data set [2] deals with P. fal. Put plainly: P. fal assay of Table 13 (strain not given). It counts as cell-based, P. falciparum.
Data set [3] concerns L. major promastigote. Put plainly: L. major promastigote assay. It counts as cell-based.
The test system of data set [4] is HepG2 cells. Put plainly: HepG2 cell toxicity (MTT) assay. It counts as cell-based. Conditions: Table 13; read-out: HepG2 TC50.
Experiment in data set [5]: not given
The source holds these as a separate data set.

The test system of data set [6] is T. cruzi. Put plainly: T. cruzi growth inhibition. It counts as cell-based, Trypanosoma cruzi.
Data set [7] deals with T. brucei brucei Lister 427. Briefly: Trypanosome replication assay. It counts as cell-based, Trypanosoma brucei brucei. Conditions: concentration giving 50% inhibition of growth of T brucei brucei Lister 427 cells, 48 h, values ±7%, read-out: Tbb EC50.
Data set [8] has as its system endocytosis of transferrin. Put plainly: Receptor-mediated endocytosis of transferrin in the trypanosome. It counts as cell-based, T. brucei.
Data set [9] can be described thus: Human liver microsomes CLint. (Liver microsomes are vesicles of endoplasmic reticulum, rich in cytochrome P450 enzymes.)
A short description of data set [10]: Male rat hepatocytes CLint.
The nature of data set [11]: Protein binding (Table 14). Conditions: plasma.
Data set [12] can be described thus: Thermodynamic aqueous solubility. It counts as physicochemical.
Data set [13] can be described thus: logD. It counts as physicochemical.

pEC50: −log10 of the molar value. Where two headings read alike, the source gives them in different places. A value given as a limit tells only on which side of the number the result lay.

As to `CN1CCCN(S(=O)(=O)c2ccc(-c3ccc4ncc(C#N)c(Nc5ccc(OCc6cccc(F)c6)c(Cl)c5)c4c3)cc2)CC1` [NEU-924], the “Male rat hepatocytes median CLint” value is recorded as 37.95 μl/min/1E6 cells. The compound further had a pEC50 in [1] of 5.80. Besides, the pEC50 in data set [2] is 7.33. Further, the negative logarithm of the EC50 (pEC50) in data set [3] is 6.04. For the same compound, in data set [4], the CC50 was above 15000 nM. The “Human liver microsomes median CLint” value in [5] is 151.8 µL/min/mg. In data set [6], this compound showed a pEC50 of 7.05. In addition, the pEC50 in data set [7] was 6.46.

With `CS(=O)(=O)CCNCc1ccc(-c2ccc3ncnc(Nc4ccc(OCc5cccc(F)c5)c(Cl)c4)c3c2)o1` [Compound 1, lapatinib, reference compound], the “effect on endocytosis of transferrin” value in data set [8] is “inhibited endocytosis of transferrin”.

As to `CN1CCN(S(=O)(=O)c2ccc(-c3ccc4c(Nc5ccc(OCc6cccc(F)c6)c(Cl)c5)ccnc4c3)cc2)CC1` [NEU-961, N-(3-Chloro-4-((3-fluorobenzyl)oxy)phenyl)-7-(4-((4-methylpiperazin-1-yl)sulfonyl)phenyl)quinolin-4-amine], in [9], the “Human liver microsomes median CLint” value was 142.7 µL/min/mg. Moreover, the pEC50 is 5.80 in data set [1] (Leishmania major); 7.72 in data set [2] (Plasmodium falciparum); 6.00 in [3] (Leishmania major); 6.14 in data set [6] (Trypanosoma cruzi); 7.10 in data set [7] (Trypanosoma brucei). For the same compound, in [10], the “Male rat hepatocytes median CLint” value is reported as 20.24 μl/min/1E6 cells. The unbound share (fraction unbound) in data set [11] was below 0.01. Moreover, the CC50 in data set [4] was above 4000 nM.

Take `O=S(=O)(c1ccc(-c2ccc3nccc(Nc4ccc(OCc5ccccc5)c(Cl)c4)c3c2)cc1)N1CCOCC1` [NEU-945, N-(4-(Benzyloxy)-3-chlorophenyl)-6-(4-(morpholinosulfonyl)phenyl)quinolin-4-amine]: in data set [9], the “Human liver microsomes median CLint” value amounted to 78.87 µL/min/mg. In [12], this compound had a Solubility below 1 µM. The pEC50 in data set [1] (Leishmania major) is below 5.52; in [2] (Plasmodium falciparum), 7.49; in data set [3] (Leishmania major), 6.70; in data set [6] (Trypanosoma cruzi) it was 4.31; in data set [7] (Trypanosoma brucei), 5.68. The “Male rat hepatocytes median CLint” value in [10] came out at 13.93 μl/min/1E6 cells. In data set [13], this compound came in with a pH-dependent lipophilicity (logD) of 3.5. For the same compound, the fraction unbound in data set [11] was below 0.01. Besides, in data set [4], the CC50 is above 5000 nM.

Turning to `CN1CCCN(S(=O)(=O)c2ccc(-c3ccc4c(Nc5ccc(OCc6cccc(F)c6)c(Cl)c5)cnnc4c3)cc2)CC1` [NEU-1017, N-(3-Chloro-4-((3-fluorobenzyl)oxy)phenyl)-7-(4-((4-methyl-1,4-diazepan-1-yl)sulfonyl)phenyl)cinnolin-4-amine], the “Human liver microsomes median CLint” value in data set [9] amounted to 99.32 µL/min/mg. The compound also returned a Solubility in data set [12] below 1 µM. Also, the pEC50 in [1] (Leishmania major) was 6.62; in data set [2] (Plasmodium falciparum) it was 8.52; in data set [3] (Leishmania major), 5.19; in data set [6] (Trypanosoma cruzi), 4.31; in data set [7] (Trypanosoma brucei), 6.68. Besides, the “Male rat hepatocytes median CLint” value in [10] turned out to be 36.72 μl/min/1E6 cells. For the same compound, the unbound share (fraction unbound) in data set [11] is below 0.01. Moreover, in [4], the CC50 is 15000 nM.

One may read the pEC50 as the EC50 on a negative log10 scale, so that one unit is a factor of ten. What is called fraction unbound is the share of the substance not bound to proteins or other matrix. The term Solubility denotes how much of the substance goes into solution per volume. The low end stands for little dissolved substance, the high end for much dissolved substance. Usually logD stands for lipophilicity at a set pH, counting ionised and neutral species. Lower therefore signals lower lipophilicity.
